Laboratory results reported in patent US10508092B2, “Synthesis of novel analogs of diptoindonesin G, compounds formed thereby, and pharmaceutical compositions containing them” (Wisconsin Alumni Research Foundation, priority 2016, dated 2019).
Entries after “also recorded” stand apart in the source; their conditions may differ.

Legend:
[1] = system: estrogen receptor α (ERα); assay: Western blot of ERα levels in MCF7 cells; type: cell-based, human
Experimental: FIGS. 1A, 1B, and 1C together depict the biological activity of the subject compounds on estrogen receptor α (ERα) levels in human breast cancer cells.
(§1) The biological activity of these four analogs were then compared with the parent compound Dip G following our previous protocol (Zhao et al., supra). See FIGS. 1A, 1B, 1C, 2A, 2B, and 2C. Cells were treated with each compound at 10 μM concentration in order to evaluate how well each modified the stability of ERα and ERβ.
(§2) MCF7 cells were treated with Dip G and analogs for 24 hours before harvesting. Hs578T-tet-on-ERβ cells (ATCC HTB-126; American Type Culture Collection, Manassas, Va.) were treated with doxycycline for 24 hours to induce ERβ expression. Then the cells were treated with compounds for 5 days before harvesting. 15 μg of total cell lysates were resolved on SDS-PAGE and Western blot analyses were performed as previously described using ERα antibody (HC-20, Santa Cruz Biotechnology, Inc., Dallas, Tex.) and anti-FLAG antibody (F7425, Sigma-Aldrich Co., LLC, St. Louis, Mo.) for ERβ.^3

[2] = system: estrogen receptor α (ERα); settings: breast cancer, Zhao et al. 2015; cited from earlier work
[3] = Pharmacokinetics (plasma concentration by HPLC and LC/MS) in mice; type: in vivo; settings: mouse
[4] = system: murine leukemia P-388 cells; settings: cited from earlier work
wildtype ERα = assay: ERE-Luciferase activity of wildtype ERα in T47D cells; type: cell-based, human; settings: co-treated with 10 nM E2, 10 μM, 24 hrs
Experimental: (§3) FIG. 6 is a histogram depicting Dip G- and Dip G-D1-inhibited E2-dependent ERE-Luciferase activities of wildtype ERα or ERα Y537S in T47D cells. Cells were co-treated with 10 nM E2 and Dip G or Dip G-D1 (10 μM) for 24 hrs. The experiments were performed in triplicate. Data are represented as mean±SD, n=3.

ERα Y537S = assay: ERE-Luciferase activity of ERα Y537S in T47D cells; type: cell-based, human
Experimental: as §3
See Merenbakh-Lamin, K., Ben-Baruch, N., Yeheskel, A., Dvir, A., Soussan-Gutman, L., Jeselsohn, R., Yelensky, R., Brown, M., Miller, V. A., Sarid, D. et al. (2013) “D538G mutation in estrogen receptor-alpha: A novel mechanism for acquired endocrine resistance in breast cancer,” Cancer research, 73:6856-6864 and Jeselsohn, R., Yelensky, R., Buchwalter, G., Frampton, G., Meric-Bernstam, F., Gonzalez-Angulo, A. M., Ferrer-Lozano, J., Perez-Fidalgo, J. A., Cristofanilli, M., Gomez, H. et al. (2014) “Emergence of constitutively active estrogen receptor-alpha mutations in pretreated advanced estrogen receptor-positive breast cancer,” Clinical cancer research: an official journal of the American Association for Cancer Research, 20:1757-1767. Using these ERα mutant expressing cell lines, we will: (a) compare ERα degradation rate induced by fulvestrant, Dip G and Dip G-D1 using ELISA assay as shown in FIG. 5; (b) measure IC50 of Dip G and Dip G analogues to inhibit ERα transcriptional activity in luciferase assay.

ERα [5] = biological target: T1, ERα (Homo sapiens, UniProt P03372); assay: Direct binding to ERα
T1 sequence (P03372 1-595): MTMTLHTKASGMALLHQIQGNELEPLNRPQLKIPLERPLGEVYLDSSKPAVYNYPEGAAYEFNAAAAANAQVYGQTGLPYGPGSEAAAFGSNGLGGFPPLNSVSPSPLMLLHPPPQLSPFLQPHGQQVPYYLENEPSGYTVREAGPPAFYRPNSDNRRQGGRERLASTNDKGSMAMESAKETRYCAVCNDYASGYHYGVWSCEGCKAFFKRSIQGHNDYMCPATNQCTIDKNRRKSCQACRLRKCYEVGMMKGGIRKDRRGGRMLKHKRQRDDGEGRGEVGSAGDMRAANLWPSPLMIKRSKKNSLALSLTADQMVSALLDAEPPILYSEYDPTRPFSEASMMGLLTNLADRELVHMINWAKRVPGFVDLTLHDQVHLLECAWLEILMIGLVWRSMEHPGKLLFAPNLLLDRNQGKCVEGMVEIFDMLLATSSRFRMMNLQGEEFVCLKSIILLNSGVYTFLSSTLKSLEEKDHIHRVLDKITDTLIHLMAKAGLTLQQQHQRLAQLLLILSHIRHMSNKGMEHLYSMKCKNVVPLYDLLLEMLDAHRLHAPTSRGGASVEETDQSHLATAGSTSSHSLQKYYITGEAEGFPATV

ERα [6] = assay: ERα transcriptional activity in MCF7 cells; type: cell-based, human
CHIP ubiquitin E3 ligase = biological target: T2, CHIP ubiquitin E3 ligase (Homo sapiens, UniProt Q9UNE7); assay: Binding to CHIP ubiquitin E3 ligase
T2 sequence (Q9UNE7 1-303): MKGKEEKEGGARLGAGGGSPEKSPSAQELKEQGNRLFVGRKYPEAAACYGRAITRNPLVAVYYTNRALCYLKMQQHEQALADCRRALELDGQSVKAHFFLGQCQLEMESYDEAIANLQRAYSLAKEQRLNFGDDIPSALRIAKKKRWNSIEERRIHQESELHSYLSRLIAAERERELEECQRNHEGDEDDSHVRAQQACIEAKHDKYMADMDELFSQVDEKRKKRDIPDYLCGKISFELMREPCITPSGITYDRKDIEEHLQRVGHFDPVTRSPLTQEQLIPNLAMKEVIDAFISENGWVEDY

[7] = system: estrogen receptor β (ERβ); assay: Western blot of FLAG-ERβ levels in Hs578T-ERβLuc Dox-inducible cells; type: cell-based, human; settings: Hs578T-ERβLuc Dox-inducible line, 10 μM, 5 days, Western blot (anti-FLAG)
Experimental: FIGS. 2A, 2B, and 2C together depict the biological activity of the subject compounds on estrogen receptor β (ERβ) levels in human breast cancer cells.
as §1, §2

O=C1c2c(O)cc(O)cc2-c2c(-c3ccc(O)cc3)oc3cc(O)cc1c23 [Dip G, diptoindonesin G]
amount of endogenous ERα in MCF7 cells ([1]; 10 μM, compared to untreated cells, gel blot FIG. 4): degrades endogenous ERα; also recorded: greatly decreased
ERα stability ([1]; MCF7 cells, 10 μM, 24 hours, Western blot): decreased ERα stability with the largest change
endogenous ERα protein levels ([1]; MCF7 cells, FIG. 4): less than 20%
stability of ERα [2]: decreases the stability
half-life [3]: 1 h
anti-proliferation effect [4]: anti-proliferation effect
E2-dependent ERE-Luciferase activity of wildtype ERα (wildtype ERα): inhibited
E2-dependent ERE-Luciferase activity of ERα Y537S (ERα Y537S; T47D cells, co-treated with 10 nM E2, 10 μM, 24 hrs): inhibited
ligand-independent transcription activity of ERα Y537S mutant (ERα Y537S; T47D expressing ERα Y537S, preliminary data): can be inhibited
direct binding to ERα (ERα [5]): does not directly bind
ERα transcriptional activity (ERα [6]): decreases ERα transcriptional activity
binding to CHIP ubiquitin E3 ligase (CHIP ubiquitin E3 ligase): binds
ERβ stability [7]: strongly stabilized
